{"source": "patent US9890142B2", "about": "“PDE4 inhibitor” (Meiji Seika Pharma Co., Ltd., priority 2013, dated 2018)"}
{"tested_on": "PDE4", "experiment": "Evaluation of PDE4 inhibition (scintillation proximity assay)", "format": "biochemical", "settings": "inhibition rate relative to control, test compound at 1 μM", "procedure": "Test Example 1 Evaluation of PDE4 Inhibition\nThe PDE4 inhibitory activity was measured by using scintillation proximity assay (SPA) as follows: one in which a sample compound dissolved in dimethyl sulfoxide was diluted 10-fold with a buffer solution for reaction containing 50 mM Tris-HCl, pH 7.5, 8.3 mM MgCl2, 1.7 mM EDTA and 0.3 mg/mL bovine serum albumin (BSA) was added at 10 μL/well to a 96-well assay plate. Further, PDE4 diluted 750-fold with a buffer solution for reaction was added at 50 μL/well, then [2,8-^3H]-Adenosine-3′,5′-cyclic phosphate triethylammonium salt diluted 1000-fold with a buffer solution for reaction was added at 40 μL/well, and the plate was left standing at room temperature for 120 minutes. Thereafter, a suspension of RNA binding YSi-SPA Beads containing 200 mM ZnSO4 was added at 50 μL/well, and the plate was left standing at room temperature for 15 minutes to adsorb the enzyme reaction product onto the Beads. Thereafter, the radioactivity was measured with a liquid scintillation counter for 96-well plates. When one supplemented with only a buffer solution for reaction without adding the enzyme preparation was used as a blank and one supplemented with the enzyme preparation but supplemented with only dimethyl sulfoxide instead of the sample solution was used as a control, the inhibition rate of the test compound relative to the control was calculated according to the following calculation expression: Inhibition rate (%)={1−(Numeric value from the addition of each sample−Blank value)/(Control value−Blank value)}×100", "units": {"PDE4 inhibitory activity (1 μM (%))": "%"}}
{"smiles": "C[C@H]1CNCCN1c1nc2cc(Cl)cc(C3CCCO3)c2o1", "note": "(mixture of isomers) [Example 80, 5-Chloro-2-((S)-2-methylpiperazin-1-yl)-7-(tetrahydrofuran-2-yl)benzoxazole]", "PDE4 inhibitory activity (1 μM (%))": 42}
{"smiles": "CC(C)c1cc(Cl)cc2nc(N3CCNC[C@@H]3C)oc12", "note": "[Example 1, (S)-5-Chloro-7-isopropyl-2-(2-methylpiperazin-1-yl)benzoxazole]", "PDE4 inhibitory activity (1 μM (%))": 87}
{"smiles": "COc1cc(Cl)cc2nc(N3CCNC[C@@H]3C)oc12", "note": "[Example 2, (S)-5-Chloro-7-methoxy-2-(2-methylpiperazin-1-yl)benzoxazole]", "PDE4 inhibitory activity (1 μM (%))": 23}
{"smiles": "CC(=O)c1cc(Cl)cc2nc(N3CCNC[C@@H]3C)oc12", "note": "[Example 3, (S)-7-Acetyl-5-chloro-2-(2-methylpiperazin-1-yl)benzoxazole]", "PDE4 inhibitory activity (1 μM (%))": 50}
{"smiles": "Cc1cc(Cl)cc2nc(N3[C@H](C)CNC[C@@H]3C)oc12", "note": "[Example 4, meso-5-Chloro-2-(2,6-cis-dimethylpiperazin-1-yl)-7-methylbenzoxazole]", "PDE4 inhibitory activity (1 μM (%))": 18}
{"smiles": "Cc1cc(F)cc2nc(N3CCNC[C@@H]3C)oc12", "note": "[Example 5, (S)-5-Fluoro-7-methyl-2-(2-methylpiperazin-1-yl)benzoxazole]", "PDE4 inhibitory activity (1 μM (%))": 25}
{"smiles": "Cc1cc(Br)cc2nc(N3CCNC[C@@H]3C)oc12", "note": "[Example 6, (S)-5-Bromo-7-methyl-2-(2-methylpiperazin-1-yl)benzoxazole]", "PDE4 inhibitory activity (1 μM (%))": 36}
{"smiles": "CC(C)Oc1cc(Cl)cc2nc(N3CCNC[C@@H]3C)oc12", "note": "[Example 7, (S)-5-Chloro-7-isopropoxy-2-(2-methylpiperazin-1-yl)benzoxazole]", "PDE4 inhibitory activity (1 μM (%))": 59}
{"smiles": "CCc1cc(Cl)cc2nc(N3CCNC[C@@H]3C)oc12", "note": "[Example 8, (S)-5-Chloro-7-ethyl-2-(2-methylpiperazin-1-yl)benzoxazole]", "PDE4 inhibitory activity (1 μM (%))": 79}
{"smiles": "CCOC(=O)c1cc(Cl)cc2nc(N3CCNC[C@@H]3C)oc12", "note": "[Example 9, (S)-5-Chloro-7-ethoxycarbonyl-2-(2-methylpiperazin-1-yl)benzoxazole]", "PDE4 inhibitory activity (1 μM (%))": 50}
{"smiles": "C[C@H]1CNCCN1c1nc2cc(Cl)cc(C#N)c2o1", "note": "[Example 10, (S)-5-Chloro-7-cyano-2-(2-methylpiperazin-1-yl)benzoxazole]", "PDE4 inhibitory activity (1 μM (%))": 36}
{"smiles": "CCc1cc(Cl)cc2nc(N3CCNC[C@@H]3C(C)C)oc12", "note": "[Example 11, (S)-5-Chloro-7-ethyl-2-(2-isopropylpiperazin-1-yl)benzoxazole]", "PDE4 inhibitory activity (1 μM (%))": 26}
{"smiles": "CCc1cc(Cl)cc2nc(N3CCNC[C@@H]3CC(C)C)oc12", "note": "[Example 12, (S)-5-Chloro-7-ethyl-2-(2-isobutylpiperazin-1-yl)benzoxazole]", "PDE4 inhibitory activity (1 μM (%))": "<10"}
{"smiles": "CCCC[C@H]1CNCCN1c1nc2cc(Cl)cc(CC)c2o1", "note": "[Example 13, (S)-2-(2-n-Butylpiperazin-1-yl)-5-chloro-7-ethylbenzoxazole]", "PDE4 inhibitory activity (1 μM (%))": "<10"}
{"smiles": "CCc1cc(Cl)cc2nc(N3CCNC[C@@H]3CC)oc12", "note": "[Example 14, (S)-5-Chloro-7-ethyl-2-(2-ethylpiperazin-1-yl)benzoxazole]", "PDE4 inhibitory activity (1 μM (%))": 37}
{"smiles": "C[C@H]1CNCCN1c1nc2cc(Cl)cc(CO)c2o1", "note": "[Example 15, (S)-5-Chloro-7-hydroxymethyl-2-(2-methylpiperazin-1-yl)benzoxazole]", "PDE4 inhibitory activity (1 μM (%))": 21}
{"smiles": "C[C@H]1CNCCN1c1nc2cc(Cl)cc(-c3ccsc3)c2o1", "note": "[Example 16, (S)-5-Chloro-2-(2-methylpiperazin-1-yl)-7-(thiophen-3-yl)benzoxazole]", "PDE4 inhibitory activity (1 μM (%))": 75}
{"smiles": "C[C@H]1CNCCN1c1nc2cc(Cl)cc(-c3ccoc3)c2o1", "note": "[Example 17, (S)-5-Chloro-7-(furan-3-yl)-2-(2-methylpiperazin-1-yl)benzoxazole]", "PDE4 inhibitory activity (1 μM (%))": 84}
{"smiles": "C[C@H]1CNCCN1c1nc2cc(Cl)cc(-c3cccs3)c2o1", "note": "[Example 18, (S)-5-Chloro-2-(2-methylpiperazin-1-yl)-7-(thiophen-2-yl)benzoxazole]", "PDE4 inhibitory activity (1 μM (%))": 76}
{"smiles": "C[C@H]1CNCCN1c1nc2cc(Cl)cc(-c3ccccc3)c2o1", "note": "[Example 19, (S)-5-Chloro-2-(2-methylpiperazin-1-yl)-7-phenylbenzoxazole]", "PDE4 inhibitory activity (1 μM (%))": 76}
{"smiles": "C[C@H]1CNCCN1c1nc2cc(Cl)cc(N3CCCC3)c2o1", "note": "[Example 20, (S)-5-Chloro-2-(2-methylpiperazin-1-yl)-7-(pyrrolidin-1-yl)benzoxazole]", "PDE4 inhibitory activity (1 μM (%))": 71}
{"smiles": "C[C@H]1CNCCN1c1nc2cc(Cl)cc(N3CCOCC3)c2o1", "note": "[Example 21, (S)-5-Chloro-2-(2-methylpiperazin-1-yl)-7-(morpholin-1-yl)benzoxazole]", "PDE4 inhibitory activity (1 μM (%))": 59}
{"smiles": "C[C@H]1CNCCN1c1nc2cc(Cl)cc(N3CCCCC3)c2o1", "note": "[Example 22, (S)-5-Chloro-2-(2-methylpiperazin-1-yl)-7-(piperidin-1-yl)benzoxazole]", "PDE4 inhibitory activity (1 μM (%))": 40}
{"smiles": "C[C@H]1CNCCN1c1nc2cc(Cl)cc(-c3ccco3)c2o1", "note": "[Example 23, (S)-5-Chloro-7-(furan-2-yl)-2-(2-methylpiperazin-1-yl)benzoxazole]", "PDE4 inhibitory activity (1 μM (%))": 95}
{"smiles": "C[C@H]1CNCCN1c1nc2cc(Cl)cc(NC3CCCC3)c2o1", "note": "[Example 24, (S)-5-Chloro-7-(cyclopentylamino)-2-(2-methylpiperazin-1-yl)benzoxazole]", "PDE4 inhibitory activity (1 μM (%))": 27}
{"smiles": "CCN(CC)c1cc(Cl)cc2nc(N3CCNC[C@@H]3C)oc12", "note": "[Example 25, (S)-5-Chloro-7-diethylamino-2-(2-methylpiperazin-1-yl)benzoxazole]", "PDE4 inhibitory activity (1 μM (%))": 53}
{"smiles": "C[C@H]1CNCCN1c1nc2cc(Cl)cc(N(C)C)c2o1", "note": "[Example 26, (S)-5-Chloro-7-dimethylamino-2-(2-methylpiperazin-1-yl)benzoxazole]", "PDE4 inhibitory activity (1 μM (%))": 61}
{"smiles": "C[C@H]1CNCCN1c1nc2cc(Cl)cc(C3CC3)c2o1", "note": "[Example 27, (S)-5-Chloro-7-cyclopropyl-2-(2-methylpiperazin-1-yl)benzoxazole]", "PDE4 inhibitory activity (1 μM (%))": 85}
{"smiles": "C[C@H]1CNCCN1c1nc2cc(Cl)cc(OC3CCCC3)c2o1", "note": "[Example 28, (S)-5-Chloro-7-(cyclopentyloxy)-2-(2-methylpiperazin-1-yl)benzoxazole]", "PDE4 inhibitory activity (1 μM (%))": 81}
{"smiles": "CCOc1cc(Cl)cc2nc(N3CCNC[C@@H]3C)oc12", "note": "[Example 29, (S)-5-Chloro-7-ethoxy-2-(2-methylpiperazin-1-yl)benzoxazole]", "PDE4 inhibitory activity (1 μM (%))": 63}
{"smiles": "CCCOc1cc(Cl)cc2nc(N3CCNC[C@@H]3C)oc12", "note": "[Example 30, (S)-5-Chloro-2-(2-methylpiperazin-1-yl)-7-n-propoxybenzoxazole]", "PDE4 inhibitory activity (1 μM (%))": 61}
{"smiles": "C[C@H]1CNCCN1c1nc2cc(Cl)cc(C3CCCC3)c2o1", "note": "[Example 31, (S)-5-Chloro-7-cyclopentyl-2-(2-methylpiperazin-1-yl)benzoxazole]", "PDE4 inhibitory activity (1 μM (%))": 51}
{"smiles": "CCCCc1cc(Cl)cc2nc(N3CCNC[C@@H]3C)oc12", "note": "[Example 32, (S)-7-n-Butyl-5-chloro-2-(2-methylpiperazin-1-yl)benzoxazole]", "PDE4 inhibitory activity (1 μM (%))": 62}
{"smiles": "C[C@H]1CNCCN1c1nc2cc(Cl)cc(-n3cccn3)c2o1", "note": "[Example 33, (S)-5-Chloro-2-(2-methylpiperazin-1-yl)-′7-(1H-pyrazol-1-yl)benzoxazole]", "PDE4 inhibitory activity (1 μM (%))": 93}
{"smiles": "C[C@H]1CNCCN1c1nc2cc(Cl)cc(-c3ncco3)c2o1", "note": "[Example 34, (S)-5-Chloro-2-(2-methylpiperazin-1-yl)-7-(oxazol-2-yl)benzoxazole]", "PDE4 inhibitory activity (1 μM (%))": 89}
{"smiles": "C[C@H]1CNCCN1c1nc2cc(Cl)cc(-c3nccs3)c2o1", "note": "[Example 35, (S)-5-Chloro-2-(2-methylpiperazin-1-yl)-7-(thiazol-2-yl)benzoxazole]", "PDE4 inhibitory activity (1 μM (%))": 96}
{"smiles": "C[C@H]1CNCCN1c1nc2cc(Cl)cc(-n3ccnc3)c2o1", "note": "[Example 36, (S)-5-Chloro-7-(1H-imidazol-1-yl)-2-(2-methylpiperazin-1-yl)benzoxazole]", "PDE4 inhibitory activity (1 μM (%))": 39}
{"smiles": "C[C@H]1CNCCN1c1nc2cc(Cl)cc(-c3cscn3)c2o1", "note": "[Example 37, (S)-5-Chloro-2-(2-methylpiperazin-1-yl)-7-(thiazol-4-yl)benzoxazole]", "PDE4 inhibitory activity (1 μM (%))": 98}
{"smiles": "C[C@H]1CNCCN1c1nc2cc(Cl)cc(-c3cncs3)c2o1", "note": "[Example 38, (S)-5-Chloro-2-(2-methylpiperazin-1-yl)-7-(thiazol-5-yl)benzoxazole]", "PDE4 inhibitory activity (1 μM (%))": 68}
{"smiles": "Cc1ccc(-c2cc(Cl)cc3nc(N4CCNC[C@@H]4C)oc23)o1", "note": "[Example 39, (S)-5-Chloro-7-(5-methylfuran-2-yl)-2-(2-methylpiperazin-1-yl)benzoxazole]", "PDE4 inhibitory activity (1 μM (%))": 42}
{"smiles": "Cc1cnn(-c2cc(Cl)cc3nc(N4CCNC[C@@H]4C)oc23)c1", "note": "[Example 40, (S)-5-Chloro-7-(4-methyl-1H-pyrazol-1-yl)-2-(2-methylpiperazin-1-yl)benzoxazole]", "PDE4 inhibitory activity (1 μM (%))": 68}
{"smiles": "C[C@H]1CNCCN1c1nc2cc(Cl)cc(-c3ccccn3)c2o1", "note": "[Example 41, (S)-5-Chloro-2-(2-methylpiperazin-1-yl)-7-(pyridin-2-yl)benzoxazole]", "PDE4 inhibitory activity (1 μM (%))": 93}
